Tested on: NSG host mice
Test: xGVHD model with SHP1/2 inhibitor-treated TEFF cells (Example 16)
Format: in vivo
Settings: for Tbet+: engrafted human T cells; for Tbet+ / TNF-α / Absolute no. of Foxp3+ T cells expressing IFN-γ / Absolute no. of Foxp3+ T cells expressing IL-2 / Absolute no. of Foxp3+ T cells expressing TNF-α / Absolute no. of Foxp3− T cells expressing IL-2 / Absolute no. of Foxp3− T cells expressing TNF-α: TEFF & PDL1-LV transduced T cells; for Post LPS survival (%): human TEFF cells + monos + TPDL1, inhibitor treatment of Teff 100 μM, LPS day 5; for TNF-α: serum 120 min after LPS; for Absolute no. of Foxp3+ T cells expressing IFN-γ / Absolute no. of Foxp3+ T cells expressing IL-2 / Absolute no. of Foxp3+ T cells expressing TNF-α / Absolute no. of Foxp3− T cells expressing IL-2 / Absolute no. of Foxp3− T cells expressing TNF-α / Absolute no. of Foxp3− T cells expressing IFN-γ: spleen day 6, PMA/ionomycin; for Absolute no. of Foxp3− T cells expressing IFN-γ: TEFF (inhibitor-treated ex vivo where labelled) & PDL1-LV transduced T cells
From the text: Because PD1 receptor signaling occurs via SHP1/2, it was next hypothesized that ex vivo pharmacologic inhibition of this pathway using prevanadate and NSC87877 might also generate TEFF cells (TEFFShp1/2^in) resistant to the tolerizing effect of PDL1. NSG host mice received a combination of human Th1 cells (either unmodified, pervanadate-treated, or NSC87877-treated) and PDL1-LV transduced T cells. At day 6, absolute numbers of human T cells engrafted in the spleen were enumerated. Splenocyes were stimulated (PMA/ionomycin) and the absolute number of Foxp3-negative T cells expressing IFN-γ (i), IL-2 (ii), and TNF-α (iii) were quantified; conversely, […]
Recipients were challenged with LPS and serum was harvested 120 min later for measurement of TNF-α. Absolute numbers of engrafted human T cells expressing T-bet were quantified.
Cohorts of host mice received the human cell inocula specified, followed by LPS administration on day 5 post-transfer for assessment of lethal cytokine-mediated xGVHD.

Row | Compound | Tbet+ | Post LPS survival (%) | TNF-α | Absolute no. of Foxp3+ T cells expressing IFN-γ | Absolute no. of Foxp3+ T cells expressing IL-2 | Absolute no. of Foxp3+ T cells expressing TNF-α | Absolute no. of Foxp3− T cells expressing IL-2 | Absolute no. of Foxp3− T cells expressing TNF-α | Absolute no. of Foxp3− T cells expressing IFN-γ
1 | O=S(=O)(O)c1ccc2cc(N=Nc3cc(S(=O)(=O)O)c4cccnc4c3O)ccc2c1 [NSC87877] | ~2.7 ×10^3 | 0% | ~0.42 µg/mL | ~0.1 ×10^3 | ~1.4 ×10^3 | ~1.3 ×10^3 | ~2.6 ×10^3 | ~6.0 ×10^3 | ~1.1 ×10^3
2 | pervanadate | ~2.0 ×10^3 | 33% | ~0.37 µg/mL | ~.3 ×10^3 | ~1.3 ×10^3 | ~0.4 ×10^3 | ~2 ×10^3 | ~3.9 ×10^3 | ~1.5 ×10^3

Reference: US20120251514A1, “MODULATED PROGRAMMED DEATH LIGAND-1” (University Health Network, priority 2009, published 2012)
